Structures can show the parent of a compound that is named as a salt.
What was measured:
[1] = target: T1, heat shock 70 kDa protein (HSP70) (Homo sapiens, UniProt P0DMV8); experiment: nDEL affinity selection against HSP70 (enrichment fold by deep sequencing); format: binding; conditions: ratio of normalized sequencing counts in presence and absence of target protein; DNA-encoded compound
T1 construct: purchased Sino Biological 11660-H07H
Description: (§1) The panning procedure for these two soluble protein were the same. 5 μg of target protein was mixed with Ni-charged MagBeads (GenScript, Cat. #L00295), 5 nM DEL library and 10 μg/mL Salmon sperm DNA. The final volume to adjusted to 100 μL. The mixture was rotated at room temperature for 1.5 h. After washing 5 times by phosphate-buffered saline supplemented 0.05% Tween-20 (PBST), the target protein binding chemical-DNA conjugations were eluted by heating at 95° C. for 10 min in 50 μL elution buffer (20 mM Tris, pH 7.4, 100 mM NaCl). The eluted DEL compounds were amplified by PCR using Takara PrimerSTAR Max DNA Polymerase (Takara, Cat. #R045A). Then the excess primers was removed by Hieff NGS™ smarter DNA clean beads (Yeasen, Cat. #12600E503) and evaluated on 4% DNA agarose gel. The amplified products was subjected for high-throughput sequencing using Illumina HiSeq X10 Analyzer.
The combinatorial chemical library was constructed by three building block sub libraries, containing 6, 46 and 46 chemical building blocks respectively for the first, second and third building block libraries, respectively. Each building block was encoded by a 10-base pair (bp) DNA sequence. The natural products were encoded by a 30-bp DNA sequence, same length as the combinatorial chemical library DNA codes. […] After sequencing, the Illumina adaptors around the DNA coding sequences were trimmed by CLC genomics workbench version 12 (Qiagen). The left DNA coding sequences were 30 bp in length corresponding to the three DNA sequences of building blocks in 3 rounds of “split-pool” iterations. For each sample, the DNA coding sequences were mapped to the reference DNA encoding compound library. No mismatch was allowed in the mapping. The coding sequences were counted for all the compounds across different samples. The total read-counts of all the compounds in a given sample were calculated. The read-counts for each individual compound were divided by the total counts, multiplied with a constant of 100000.
(§2) NormalizedCountCompoundM,SampleA=CountCompoundM,SampleA/(TotalCountSampleA)*100000
The fold changes of each compound in the after-selection library comparing to the reference library were calculated.
(§3) FoldChangeCompoundM=NormalizedCountCompoundM,SampleA/NormalizedCountCompoundM,Ref
(§4) The hit criteria of nDEL screening take into account of both the normalized enrichment fold values (y-axis) and deep sequencing read counts (x-axis). Compounds with read counts less than 10 are considered unreliable, thus they are eliminated immediately from DEL before on-target screening. For each DEL library, a baseline enrichment fold is recorded in the absence of target protein, and a normalized enrichment fold value can be calculated for each DEL compound in the library. The cutoff for hits identification is based on a simplified statistical analysis of a highly diverse population of data, which is the sum of average value of enrichment-folds of the whole library (μ) plus 3 times of the standard deviation (σ).
Two target proteins with different cellular locations and biophysical properties were used in nDEL screens. […] The known functional binders for these targets were included in nDEL as internal positive controls, e.g., oridonin for HSP70 and derivatives of olaparib (F001, F002, F003 and F006) for PARP-1. To account for the non-uniform distribution of DNA barcodes in nDEL, a blank screen of nDEL in the absence of target proteins but presence of immobilization matrix beads was carried out first and followed by deep-sequencing to establish the baseline distribution of barcodes in the library. All screening data were analyzed using the method described by Decurtins et al., Nat Protoc. […] The corresponding DNA sequence of each nDEL compound were tallied based on its sequencing counts. The enrichment fold is calculated as the ratio of normalized sequencing counts in the presence and absence of target protein.

[2] = target: T2, poly [ADP-ribose] polymerase 1 (PARP1) (Homo sapiens, UniProt P09874); experiment: nDEL affinity selection against PARP-1 (enrichment fold by deep sequencing); format: binding; conditions: for Fold Change, enrichment folds for PARP-1 binder selection: ratio of normalized sequencing counts in presence and absence of target protein, DNA-encoded compound
T2 construct: purchased Sino Biological 11040-H08B
Description: as §1, with “The his-tag fused recombinant human PARP-1 (Sino Biological, Cat. #11040-H08B) and human-HSP70 (Sino Biological, Cat. #11660-H07H) were obtained from commercial source. The panning” for “The panning”
The combinatorial chemical library was constructed by three building block sub libraries, containing 6, 46 and 46 chemical building blocks respectively for the first, second and third building block libraries, respectively. Each building block was encoded by a 10-base pair (bp) DNA sequence. The natural products were encoded by a 30-bp DNA sequence, same length as the combinatorial chemical library DNA codes. All the possible combinations (combinatorial chemical compounds) between these three sub libraries were generated by an inhouse java program, which generated a reference DNA encoding library contains 12696 DNA encoding sequences. After sequencing, the Illumina adaptors around the DNA coding sequences were trimmed by CLC genomics workbench version 12 (Qiagen). The left DNA coding sequences were 30 bp in length corresponding to the three DNA sequences of building blocks in 3 rounds of “split-pool” iterations. For each sample, the DNA coding sequences were mapped to the reference DNA encoding compound library. No mismatch was allowed in the mapping. The coding sequences were counted for all the compounds across different samples. The total read-counts of all the compounds in a given sample were calculated. The read-counts for each individual compound were divided by the total counts, multiplied with a constant of 100000.
as §2
The fold changes of each compound in the after-selection library comparing to the reference library were calculated. For example, if SampleA and Reference library were compared, for the fold change of CompoundM was calculated as:
as §3, §4
Two target proteins with different cellular locations and biophysical properties were used in nDEL screens. […] The known functional binders for these targets were included in nDEL as internal positive controls, e.g., oridonin for HSP70 and derivatives of olaparib (F001, F002, F003 and F006) for PARP-1.

| Molecule | Enrichment Fold, HSP70 binder selection [1] | Fold Change, enrichment folds for PARP-1 binder selection [2] | Selected among enriched chemicals in PARP-1 nDEL screening ([2]; hit selection, FIG. 20(b), FIG. 21) |
| --- | --- | --- | --- |
| O=c1ccc2ccc(O)cc2o1 [7-Hydroxycoumarin] | 4.2 | – | – |
| Oc1cc(O)c2c(c1)O[C@H](c1ccc(O)c(O)c1)[C@@H](O)C2 [(+) Catechin] | 2.7 | – | – |
| O=C(O[C@@H]1Cc2c(O)cc(O)cc2O[C@@H]1c1ccc(O)c(O)c1)c1cc(O)c(O)c(O)c1 [(−)-Epicatechin gallate, (−)- Epicatechingallate] | 5.0 | 2.81 | – |
| O=C1c2ccccc2C(=O)c2c1ccc(O)c2O [Alizarin] | 4.3 | 2.02 | – |
| C[C@H]1[C@H](OC(=O)CCC(=O)O)O[C@@H]2O[C@@]3(C)CC[C@H]4[C@H](C)CC[C@@H]1[C@@]24OO3 [Artesunate] | 2.4 | – | – |
| O=c1cc(-c2ccccc2)oc2cc(O)c(O)c(O)c12 [Baicalein] | 3.6 | – | – |
| COc1c(O)cc2c(c1O)[C@@H]1O[C@H](CO)[C@@H](O)[C@H](O)[C@H]1OC2=O [Bengenin] | 3.6 | – | – |
| c1ccc(CNc2ncnc3nc[nH]c23)cc1 [Benzyladenine] | 3.6 | – | – |
| COc1ccc(-c2coc3cc(O)cc(O)c3c2=O)cc1 [Biochanin A] | 3.7 | – | – |
| Cc1c(F)cccc1NC(=O)Nc1ccc(Cl)c(S(=O)(=O)[C@H]2CCCNC2)c1O [Danirixin] | 2.9 | – | – |
| O=c1ccc2ccc(O)c(O)c2o1 [Daphnetin] | 3.9 | 2.17 | – |
| Oc1cc(O)c2c(c1)O[C@H](c1cc(O)c(O)c(O)c1)[C@H](O)C2 [Epigallocatechin, epigallocatechin] | 4.3 | 2.53 | – |
| O=c1ccc2cc(O)c(O)cc2o1 [Esculetin] | 4.1 | – | – |
| COc1cc2ccc(=O)oc2c(O)c1O [Fraxetin] | 3.3 | 2.01 | – |
| COc1cc2c(cc1O)CC[n+]1cc3c(OC)c(OC)ccc3cc1-2 [Jatrorrhizine hydrochloride] | 4.5 | 2.23 | – |
| COc1cc2c(cc1O)CC[n+]1cc3c(OC)c(OC)ccc3cc1-2 [Jatrorrhizine] | 3.7 | 2.04 | – |
| c1coc(CNc2ncnc3[nH]cnc23)c1 [Kinetin] | 2.8 | – | – |
| O=C1C[C@@H](c2ccc(O)cc2)Oc2cc(O)ccc21 [Liquiritigenin] | 2.7 | – | – |

| Molecule | Enrichment Fold, HSP70 binder selection [1] | Fold Change, enrichment folds for PARP-1 binder selection [2] | Selected among enriched chemicals in PARP-1 nDEL screening ([2]; hit selection, FIG. 20(b), FIG. 21) |
| --- | --- | --- | --- |
| O=C1C[C@@H](c2ccc(O[C@@H]3O[C@H](CO)[C@@H](O)[C@H](O)[C@H]3O)cc2)Oc2cc(O)ccc21 [Liquiritin] | 3.9 | 2.66 | – |
| COC(=O)c1ccc(O)c(O)c1 [Methyl protocatechuate] | 3.6 | – | – |
| C[C@@H]1O[C@@H](O[C@H]2[C@H](Oc3cc(O)c4c(c3)O[C@H](c3ccc(O)cc3)CC4=O)O[C@H](CO)[C@@H](O)[C@@H]2O)[C@H](O)[C@H](O)[C@H]1O [Naringin] | 4.5 | 2.17 | selected |
| COC(=O)Nc1nc2ccc(C(=O)c3cccs3)cc2[nH]1 [Nocodazole, reference compound] | 3.9 | 2.06 | – |
| CC(=O)c1c(O)cc(O)cc1O [Phloracetophenone] | 3.5 | – | – |
| O=C(CCc1ccc(O)cc1)c1c(O)cc(O)cc1O[C@@H]1O[C@H](CO)[C@@H](O)[C@H](O)[C@H]1O [Phlorizin] | 3.8 | – | – |
| COc1cc(C(=O)O[C@H]2[C@@H]3C=CO[C@@H](O[C@@H]4O[C@H](CO)[C@@H](O)[C@H](O)[C@H]4O)[C@@H]3[C@@]3(CO)O[C@@H]23)ccc1O [Picroside II] | 4.0 | – | – |
| CC1=CC(=O)c2c(O)cccc2C1=O [Plumbagin] | 4.4 | 2.97 | – |
| O=C(O)c1ccc(O)c(O)c1 [Protocatechuic acid] | 3.8 | – | – |
| Cc1ncc(CO)c(CO)c1O [Pyridoxine, reference compound] | 3.4 | – | – |
| COc1cc2ccc(=O)oc2cc1O [Scopoletin] | 6.0 | 2.82 | – |
| CNCC(O)c1ccc(O)cc1 (stereo not drawn) [Synephrine] | 3.2 | 2.17 | – |
| Cn1cnc2c1c(=O)[nH]c(=O)n2C [Theobromine, reference compound] | 4.3 | 2.42 | – |
| Cn1c(=O)c2c(ncn2CC(=O)O)n(C)c1=O [Theophylline-7-acetic acid, Theophylline-7-acetic acid, reference compound] | 3.3 | – | – |
| O=c1c(O)c(-c2ccc(O)c(O)c2)oc2cc(O)cc(O)c12 [quercetin, Quercetin] | 2.8 | – | – |
| O=c1c2ccccc2nc2n1CCc1c-2[nH]c2ccccc12 [rutaecarpin] | 3.2 | – | – |
| COC1=C[C@@H]2[C@@H]3Cc4ccc(OC)c(O)c4[C@]2(CCN3C)CC1=O [sinomenine] | 3.2 | – | – |
| (+)-Catechin Hydrate | 3.8 | – | – |
